The source of these data is patent publication US20220324796A1, “ANTIBIOTIC COMPOUNDS” (The General Hospital Corporation, priority 2019, published 2022).

Molecules are shown by their SMILES. Converted amounts (≈) assume the structure as drawn.

One series relates to MRSA BF4. The series is described as follows: MIC assay (micro-dilution). Format: cell-based, S. aureus. As to conditions: Staphylococcus aureus; daptomycin-intermediate resistant MRSA strain BF4. Here is the method: (§1) Minimal inhibitory concentration (MIC) assay. The MICs of antibiotics were determined by the standard micro-dilution method recommended by the Clinical and Laboratory Standards Institute. MIC assays were conducted in biological triplicate.
On the technique in general: In broth dilution the organism is exposed to a series of concentrations in liquid medium.

Series [1] relates to HKC-8 human renal proximal cells. The series is described as follows: Mammalian membrane permeability assay (SYTOX Green). The format is cell-based. As to conditions: up to 64 μg/mL. Here is the method: Mammalian membrane permeability assay. Human renal proximal tubular epithelial cells (HKC-8) were grown in Dulbecco' s modified Eagle F-12 media mixed 1:1 with Ham's F-12 (DMEM/F-12, Life Technologies, Carlsbad, Calif., USA) supplemented with 10% FBS and 4 mM L-glutamine at 37° C. in 5% CO2. For membrane permeability assays, HKC-8 was cultured in black, clear-bottom, 96-well plates (Corning no. 3904) in 100 μl/well of the growth media to reach ˜70% confluence. After washing the cells twice with PBS, 50 μl of 0.25 μM SYTOX Green was added to each well. After incubating the cells at 37° C. in 5% CO2 for 15 min, the cells were treated with a range of concentrations of bithionol or the cholesterol binding detergent saponin (positive control). Fluorescence was measured at room temperature using a spectrophotometer (SpectraMax M2, Molecular Devices) with excitation and emission wavelengths of 485 nm and 525 nm, respectively. The assay was carried out in biological duplicate.
To visualize HKC-8 cells with compromised membranes, HKC-8 was cultured in 24-well plates (Corning no. 3527) until —70% confluence. After washing the cells twice with PBS, 500 μl of 1 μM SYTOX Green was added to each well. The cells were incubated at 37° C. in 5% CO2 for 15 min and then treated with 32 μg/mL (final concentration) bithionol or saponin for 1 h. […]

The next series deals with MRSA MW2 cells. The series is described as follows: Bacterial membrane permeability assay (SYTOX Green). Format: cell-based, S. aureus. Here is the method:
Bacterial membrane permeability assay. Exponential-phase or stationary-phase S. aureus MW2 cells prepared as described above under Killing kinetics assay and Persister killing assay, respectively, were washed 3 times with the same volume of PBS. The washed cells were adjusted to OD600=0.4 with PBS. SYTOX Green (Molecular Probes, Waltham, Mass., USA) was added to 10 mL of the diluted bacterial suspension to a final concentration of 5 μM and incubated for 30 min at room temperature in the dark. 50 μl of the bacterial/SYTOX Green suspension was mixed with 50 μl of phosphate buffered saline (PBS) containing twice the desired concentrations of compounds in black, clear-bottom, 96-well plates (Corning no. 3904). Fluorescence was measured at room temperature using a spectrophotometer (SpectraMax M2, Molecular Devices) with excitation and emission wavelengths of 485 nm and 525 nm, respectively. All experiments were conducted in biological triplicate.

Series [2] relates to Gram-negative bacteria including Escherichia coli and Shigella dysenteriae. Particulars: previously described; cited from earlier work.
The nature of series [3]: Giant unilamellar vesicles (GUVs) assay, bacterial mimetic. Here is the method:
Giant unilamellar vesicles (GUVs) assay. GUVs were prepared by slightly modifying the electroformation method described previously. 1,2-dioleoyl-sn-glycero-3-phosphocholine (DOPC), 1,2-dioleoyl-sn-glycero-3-phospho-(1′-rac-glycerol) (DOPG), 1-palmitoyl-2-oleoyl-glycero-3-phosphocholine (POPC), cholesterol (ovine wool) and 1,2-dioleoyl-sn-glycero-3-phosphoethanolamine-N-(lissamine rhodamine B sulfonyl) (18:1 Liss Rhod PE) were purchased from Avanti Polar Lipids (Alabaster, Ala., USA). 4 mM lipid mixtures consisting of DOPC/DOPG/18:1 Liss Rhod PE (7:3:0.005) and POPC/cholesterol/18:1 Liss Rhod PE (7:3:0.005) were dissolved in chloroform respectively. Same procedure was used to prepare both kinds of GUVs. Indium tin oxide (ITO)-coated slides (50×75×1.1 mm, Delta Technologies, Loveland, Colo., USA) were coated with […] of the lipid mixture and dried in a vacuum chamber for 2 h to remove chloroform. An electroformation chamber was made by placing a 2 mm thick Teflon spacer between the two lipid-coated ITO slides. […] After adding 1 μl of compound solution to a well (final compound concentration: 1× MIC), the GUVs were observed and imaged with an optical microscope equipped with fluorescence contrast and a digital camera (63x objectives, Axio Observer. A1 & AxioCam MRm, Zeiss, Germany). […]

In series [4] the test system is panel of 27 Gram-positive pathogens. As to the kind of experiment: MIC assay, panel of Gram-positive pathogens. Format: cell-based. Particulars: Staphylococcus aureus; range over panel of 27 Gram-positive pathogens incl. VRSA and resistant Enterococcal strains (FIG. 6); read-out: minimum inhibitory concentrations. The procedure:
Bacterial strains and growth conditions. S. aureus strains were grown in tryptic soy broth (TSB) (BD, Franklin Lakes, N.J., USA). E. faecium and E. faecalis strains were grown in brain-heart infusion (BHI) broth (BD, Franklin Lakes, N.J., USA), and four Gram-negative species, Klebsiella pneumoniae, Acinetobacter baumannii, Pseudomonas aeruginosa, and Enterobacter aerogenes were grown in Luria Bertani (LB) broth (BD, Franklin Lakes, N.J., USA). All bacteria were grown at 37° C. at 200 r.p.m.
as §1

The subject of series [5] is exponential phase MRSA MW2 cells. As to the kind of experiment: Cell lysis by optical density. The format is cell-based, S. aureus. Particulars: 10 μg/mL, 4 h.
In series [6] the test system is Gram-positive bacteria including S. aureus, Bacilius subtilis, and Enterococcus faecium. As to conditions: previously described; cited from earlier work.

`Oc1c(Cl)cc(Cl)cc1Sc1cc(Cl)cc(Cl)c1O` [bithionol, 6,6′-thio-bis-(2,4-dichlorophenol)]: the MIC with MRSA BF4 is 0.5 µg/mL (≈ 1.4 µM); in series [2], more than 100 µg/mL; in series [4], 0.5 to 2 µg/mL (≈ 1.4 to 5.62 µM). The “SYTOX Green membrane permeabilization of HKC-8 cells” value in series [1] is reported as “did not induce SYTOX Green membrane permeabilization”. Also, in the series on MRSA MW2 cells (MRSA MW2 exponential-phase cells and/or persisters, in words), the “SYTOX Green membrane permeabilization” value is listed as “dose-dependent membrane permeability”. Besides, the “concentration at which SYTOX Green fluorescence intensity was maximized” value in the series with MRSA MW2 cells (decreased above 8 μg/mL) amounted to 4 µg/mL. For the same compound, the results for the “effect on DOPC/DOPG GUVs” value in series [3] (1 μg/mL) and in series [3] (10 μg/mL) were “Lipid aggregates formed on the surfaces of the GUVs” and “the GUVs burst”, respectively. Besides, the “optical density of S. aureus cells (bacteriolytic activity)” value in series [5] is given as “time-dependent decrease in optical density”. In addition, the “minimal inhibitory concentration (MIC)” value in series [6] was 8 to 15 µg/mL.
